Experiments:
[1] = test system: APP/PS1 Alzheimer's disease (AD) mouse model; assay: Dendritic spine density analysis (Golgi-Cox staining) in APP/PS1 AD mice; format: in vivo; details: for spine deficits in CA3 pyramidal neurons and dentate gyrus granule cells: 15-month-old male AD mice
[2] = test system: APP/PS1 Alzheimer's disease (AD) mouse model; assay: Contextual fear learning in AD mice; format: in vivo; details: 15-month-old male AD mice; 3.0 mg/kg/2nd day for 1 month; FIG. 3
Protocol: The therapeutic effect of fingolimod (FTY720) as an example for an S1PR modulator for use in the treatment of Alzheimer's disease was tested in an established double transgenic amyloid precursor protein/presenilin-1 (APP/PS1) Alzheimer's disease (AD) mouse model that starts to develop amyloid-β (Aβ) pathology in the neocortex and hippocampus at two and four months of age, respectively. This AD mouse model is particularly close to human AD pathology. Impaired LTP (long-term potentiation) at Schaffer collateral CA1 synapses in acute slices ex vivo is observed at five months in these mice and becomes detectable with in vivo recordings beyond six months of age. Moreover, hippocampus-dependent learning deficits in this APP/PS1 mouse model become apparent five to eight months after birth. […]
The analyses of the animals comprises dendritic spine density analysis, LTP recordings, Morris water maze spatial learning and memory testing, contextual fear condition training and memory testing, immunohistological stainings of microgliosis and astrogliosis, biochemical brain-derived neurotrophic factor (BDNF) quantification and downstream TrkB receptor (a high affinity BDNF receptor) signaling, and statistical analysis.

[3] = CD11c+/CD14+ age/AD-associated microglia in the cortex of AD mice; format: in vivo, mouse; details: 15-month-old male AD mice; 1.0 mg/kg/2nd day for 1 month; FIG. 8
Protocol: (§1) The therapeutic effect of fingolimod (FTY720) as an example for an S1PR modulator for use in the treatment of Alzheimer's disease was tested in an established double transgenic amyloid precursor protein/presenilin-1 (APP/PS1) Alzheimer's disease (AD) mouse model that starts to develop amyloid-β (Aβ) pathology in the neocortex and hippocampus at two and four months of age, respectively. This AD mouse model is particularly close to human AD pathology. Impaired LTP (long-term potentiation) at Schaffer collateral CA1 synapses in acute slices ex vivo is observed at five months in these mice and becomes detectable with in vivo recordings beyond six months of age. Moreover, hippocampus-dependent learning deficits in this APP/PS1 mouse model become apparent five to eight months after birth.
(§2) Male APP/PS1 mice and littermate controls (wild-type healthy mice) were treated with intraperitoneal (i.p.) injections of fingolimod (FTY720; dissolved in 3% DMSO, 1.0 mg/kg or 3.0 mg/kg body weight) every second day for 1 to 2 months.
(§3) Substance A: Control, Substance B: FTY720 (1.0 mg/kg/2nd day) for 1 month.

[4] = test system: CD11c+/CD14+ age/AD-associated microglia; assay: as above; format: in vivo, mouse; details: 15-month-old male AD mice; 1.0 mg/kg/2nd day for 1 month; FIG. 9
Protocol: as §1, §2, §3

| Compound | spine deficits in CA1 pyramidal neurons ([1]; aged (16-month-old) male AD mice, 1 mg/kg via drinking water for 1 month, starting at 15 months, FIG. 7) | spine deficits in CA1 pyramidal neurons ([1]; 6-7-month-old male AD mice, low dose 0.2 mg/kg/2nd day for 1 month, FIG. 6) | spine deficits in CA3 pyramidal neurons and dentate gyrus granule cells ([1]; 1.0 mg/kg/2nd day for 1 month, near and distant to plaques, FIG. 4, 1 mg/kg) | spine deficits in CA3 pyramidal neurons and dentate gyrus granule cells ([1]; 1.0 mg/kg/2nd day for 1 month, near and distant to plaques, FIG. 4, listed as FTY, 1 mg/kg) | spine deficits in CA3 pyramidal neurons and dentate gyrus granule cells ([1]; 3.0 mg/kg/2nd day for 1 month, FIG. 5) | number of synaptic spines versus same-aged healthy mice (wild-type littermates) ([1]; AD mice at 6-7 months and 15-16 months, short-term treatment) | spine deficits in dendrites close to plaques ([1]; APP/PS1 mice, CA1 secondary apical dendrites <50 μm from nearest plaque, FIGS. 1 and 2) | spine deficits in dendrites distant to plaques ([1]; APP/PS1 mice, CA1 secondary apical dendrites >50 μm from closest plaque, FIGS. 1 and 2) | spine deficits in CA1 pyramidal neurons ([1]; male 15-month-old AD model mice, FIG. 1) | deficit in contextual fear learning [2] | increased frequency of CD11c+/CD14+ age/AD-associated microglia in the cortex [3] | increased number of CD11c+/CD14+ age/AD-associated microglia in the cortex [4] |
| --- | --- | --- | --- | --- | --- | --- | --- | --- | --- | --- | --- | --- |
| CC(C)Oc1ccc(-c2nc(-c3cccc4c3CC[C@@H]4NCCO)no2)cc1C#N [Ozanimod] | very similar capacity to restore spine deficits |  |  |  |  |  |  |  |  |  |  |  |
| CCCCCCCCc1ccc(CCC(N)(CO)CO)cc1 [Fingolimod] |  | restored spine deficits | restored spine deficits | completely rescued spine decrease near and distant to AB plaques | restored spine deficits | restored at both ages (6-7 months and 15-16 months) to the level of same-aged healthy mice | significant amelioration of spine deficits | complete rescue of spine deficits | restored spine deficits | restored the deficit | reduces the increased frequency | reduces the increased number |

Reference: patent US20250325501A1, “A SPHINGOSINE-1-PHOSPHATE RECEPTOR (S1PR) MODULATOR FOR USE IN TREATING A PATIENT SUFFERING FROM ALZHEIMER'S DEMENTIA” (Otto-von-Guericke-Universitaet Magdeburg, priority 2022, published 2025)
